Reference: PubChem BioAssay AID1963420 (Molecular Pharmacology Branch, DTP, NCI, 2024)

Test system: 494315-158-R-J1-PDC complex spheroid growth, percent test/control
Assay: Anticancer human tumor 494315-158-R-J1-PDC patient-derived soft tissue sarcoma cell line growth inhibition [Asc]
Conditions: for IC50: curve of first compound; for viability, T/C: stronger effect = lower value
Method in brief: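 Tumor cells were grown as complex spheroids with human endothelial cells (HUVEC) and human mesenchymal stem cells as stroma. Agents were tested alone and in combination, in half-log steps down from the clinical Cmax, or from 10 microM where Cmax was unknown.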

[1] = second compound 0.01 µM, first compound 0.00316 µM
[2] = second compound 0.01 µM, first compound 0.01 µM
[3] = second compound 0.01 µM, first compound 0.0316 µM
[4] = second compound 0.01 µM, first compound 0.1 µM
[5] = second compound 0.01 µM, first compound 0.316 µM
[6] = second compound 0.01 µM, first compound 1 µM
[7] = second compound 0.0316 µM, first compound 0.00316 µM
[8] = second compound 0.0316 µM, first compound 0.01 µM
[9] = second compound 0.0316 µM, first compound 0.0316 µM
[10] = second compound 0.0316 µM, first compound 0.1 µM
[11] = second compound 0.0316 µM, first compound 0.316 µM
[12] = second compound 0.0316 µM, first compound 1 µM
[13] = second compound 0.1 µM, first compound 0.00316 µM
[14] = second compound 0.1 µM, first compound 0.01 µM
[15] = second compound 0.1 µM, first compound 0.0316 µM
[16] = second compound 0.1 µM, first compound 0.1 µM
[17] = second compound 0.1 µM, first compound 0.316 µM
[18] = second compound 0.1 µM, first compound 1 µM
[19] = second compound 0.316 µM, first compound 0.00316 µM
[20] = second compound 0.316 µM, first compound 0.01 µM
[21] = second compound 0.316 µM, first compound 0.0316 µM
[22] = second compound 0.316 µM, first compound 0.1 µM
[23] = second compound 0.316 µM, first compound 0.316 µM
[24] = second compound 0.316 µM, first compound 1 µM
[25] = second compound 1 µM, first compound 0.00316 µM
[26] = second compound 1 µM, first compound 0.01 µM
[27] = second compound 1 µM, first compound 0.0316 µM
[28] = second compound 1 µM, first compound 0.1 µM
[29] = second compound 1 µM, first compound 0.316 µM
[30] = second compound 1 µM, first compound 1 µM
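Further: compound exposure lasted seven days after spheroids formed for three days.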

CCN1CCN(Cc2ccc(Nc3ncc(F)c(-c4cc(F)c5nc(C)n(C(C)C)c5c4)n3)nc2)CC1 + CNC(C)C(=O)NC1CN(S(=O)(=O)c2cccc(S(=O)(=O)N3CCC4CCC(C(=O)NC(c5ccccc5)c5ccccc5)N4C(=O)C(NC(=O)C(C)NC)C3)c2)CCC2CCC(C(=O)NC(c3ccccc3)c3ccccc3)N2C1=O showed an IC50 (second compound 0.01 µM) greater than 1 µM, an IC50 (second compound 0.0316 µM) greater than 1 µM and an IC50 (second compound 0.1 µM) greater than 1 µM. For the same compound, the IC50 (second compound 0.316 µM) was less than 0.00316 µM, the IC50 (second compound 1 µM) was less than 0.00316 µM and the viability, T/C [1] was 77.8%. For the same compound, the viability, T/C [2] was 81.6%, the viability, T/C [3] was 67% and the viability, T/C [4] was 64.4%. The viability, T/C [5] was 67.5%, the viability, T/C [6] was 63.8% and the viability, T/C [7] was 56.8%. The viability, T/C [8] was 63.9%, the viability, T/C [9] was 68.7% and the viability, T/C [10] was 52.2%. It also gave a viability, T/C [11] of 57.2%, a viability, T/C [12] of 53.4% and a viability, T/C [13] of 55.6%. For the same compound, the viability, T/C [14] was 57.4%, the viability, T/C [15] was 48.9% and the viability, T/C [16] was 58.4%. It also gave a viability, T/C [17] of 57.4%, a viability, T/C [18] of 48.9% and a viability, T/C [19] of 51.5%. For the same compound, the viability, T/C [20] was 46.4%, the viability, T/C [21] was 50.2% and the viability, T/C [22] was 43.4%. The viability, T/C [23] was 51.3%, the viability, T/C [24] was 52.5% and the viability, T/C [25] was 36.3%. It also gave a viability, T/C [26] of 39.7%, a viability, T/C [27] of 44.4% and a viability, T/C [28] of 41.8%. It also gave a viability, T/C [29] of 45.3% and a viability, T/C [30] of 48.5%.

In the case of COc1c(OCCCN2CCOCC2)ccc2c3n(c(=NC(=O)c4cnc(N)nc4)nc12)CCN3 + CNC(C)C(=O)NC1CN(S(=O)(=O)c2cccc(S(=O)(=O)N3CCC4CCC(C(=O)NC(c5ccccc5)c5ccccc5)N4C(=O)C(NC(=O)C(C)NC)C3)c2)CCC2CCC(C(=O)NC(c3ccccc3)c3ccccc3)N2C1=O, the IC50 (second compound 0.01 µM) is reported as 0.0171 µM, the IC50 (second compound 0.0316 µM) is reported as 0.011 µM and the IC50 (second compound 0.1 µM) is reported as 0.00459 µM. It also gave an IC50 (second compound 0.316 µM) of less than 0.00316 µM, an IC50 (second compound 1 µM) of less than 0.00316 µM and a viability, T/C [1] of 65.8%. The viability, T/C [2] was 55.1%, the viability, T/C [3] was 44.7% and the viability, T/C [4] was 22.7%. The viability, T/C [5] was 16.8%, the viability, T/C [6] was 8.91% and the viability, T/C [7] was 53.5%. For the same compound, the viability, T/C [8] was 54.3%, the viability, T/C [9] was 37.3% and the viability, T/C [10] was 25.5%. The viability, T/C [11] was 14%, the viability, T/C [12] was 9.58% and the viability, T/C [13] was 52.3%. For the same compound, the viability, T/C [14] was 45.3%, the viability, T/C [15] was 30.1% and the viability, T/C [16] was 18.9%. For the same compound, the viability, T/C [17] was 12.8%, the viability, T/C [18] was 9.36% and the viability, T/C [19] was 38.2%. The viability, T/C [20] was 39.2%, the viability, T/C [21] was 28.4% and the viability, T/C [22] was 16.8%. For the same compound, the viability, T/C [23] was 11.8%, the viability, T/C [24] was 9.4% and the viability, T/C [25] was 47.4%. It also gave a viability, T/C [26] of 35.2%, a viability, T/C [27] of 25.2% and a viability, T/C [28] of 18.6%. It also gave a viability, T/C [29] of 9.45% and a viability, T/C [30] of 7.69%.

Work on NC(=O)C(=Cn1cnc(-c2cc(C(F)(F)F)cc(C(F)(F)F)c2)n1)c1cncnc1 + CNC(C)C(=O)NC1CN(S(=O)(=O)c2cccc(S(=O)(=O)N3CCC4CCC(C(=O)NC(c5ccccc5)c5ccccc5)N4C(=O)C(NC(=O)C(C)NC)C3)c2)CCC2CCC(C(=O)NC(c3ccccc3)c3ccccc3)N2C1=O yielded an IC50 (second compound 0.01 µM) of 0.0505 µM, an IC50 (second compound 0.0316 µM) of 0.012 µM and an IC50 (second compound 0.1 µM) of 0.00995 µM. The IC50 (second compound 0.316 µM) was 0.00127 µM, the IC50 (second compound 1 µM) was less than 0.000949 µM and the viability, T/C (second compound 0.01 µM, first compound 0.000949 µM) was 73.4%. It also gave a viability, T/C (second compound 0.01 µM, first compound 0.003 µM) of 70.6%, a viability, T/C (second compound 0.01 µM, first compound 0.00949 µM) of 59.4% and a viability, T/C (second compound 0.01 µM, first compound 0.03 µM) of 54.2%. For the same compound, the viability, T/C (second compound 0.01 µM, first compound 0.0949 µM) was 46.8%, the viability, T/C (second compound 0.01 µM, first compound 0.3 µM) was 7.92% and the viability, T/C (second compound 0.0316 µM, first compound 0.000949 µM) was 58.4%. The viability, T/C (second compound 0.0316 µM, first compound 0.003 µM) was 58.8%, the viability, T/C (second compound 0.0316 µM, first compound 0.00949 µM) was 51.9% and the viability, T/C (second compound 0.0316 µM, first compound 0.03 µM) was 41.4%. The viability, T/C (second compound 0.0316 µM, first compound 0.0949 µM) was 27.8%, the viability, T/C (second compound 0.0316 µM, first compound 0.3 µM) was 7.91% and the viability, T/C (second compound 0.1 µM, first compound 0.000949 µM) was 51%. It also gave a viability, T/C (second compound 0.1 µM, first compound 0.003 µM) of 64.5%, a viability, T/C (second compound 0.1 µM, first compound 0.00949 µM) of 46.6% and a viability, T/C (second compound 0.1 µM, first compound 0.03 µM) of 39.5%. For the same compound, the viability, T/C (second compound 0.1 µM, first compound 0.0949 µM) was 23.5%, the viability, T/C (second compound 0.1 µM, first compound 0.3 µM) was 5.3% and the viability, T/C (second compound 0.316 µM, first compound 0.000949 µM) was 49.3%. The viability, T/C (second compound 0.316 µM, first compound 0.003 µM) was 50.1%, the viability, T/C (second compound 0.316 µM, first compound 0.00949 µM) was 43.8% and the viability, T/C (second compound 0.316 µM, first compound 0.03 µM) was 33.6%. It also gave a viability, T/C (second compound 0.316 µM, first compound 0.0949 µM) of 24.4%, a viability, T/C (second compound 0.316 µM, first compound 0.3 µM) of 5.39% and a viability, T/C (second compound 1 µM, first compound 0.000949 µM) of 35.7%. For the same compound, the viability, T/C (second compound 1 µM, first compound 0.003 µM) was 36.7%, the viability, T/C (second compound 1 µM, first compound 0.00949 µM) was 40.4% and the viability, T/C (second compound 1 µM, first compound 0.03 µM) was 35.8%. For the same compound, the viability, T/C (second compound 1 µM, first compound 0.0949 µM) was 21.8% and the viability, T/C (second compound 1 µM, first compound 0.3 µM) was 6.84%.

NC1CCC(NC2CC2c2ccccc2)CC1 (stereo not given) + CNC(C)C(=O)NC1CN(S(=O)(=O)c2cccc(S(=O)(=O)N3CCC4CCC(C(=O)NC(c5ccccc5)c5ccccc5)N4C(=O)C(NC(=O)C(C)NC)C3)c2)CCC2CCC(C(=O)NC(c3ccccc3)c3ccccc3)N2C1=O showed an IC50 (second compound 0.01 µM) greater than 0.1 µM, an IC50 (second compound 0.0316 µM) greater than 0.1 µM and an IC50 (second compound 0.1 µM) greater than 0.1 µM. It also gave an IC50 (second compound 0.316 µM) of less than 0.000316 µM, an IC50 (second compound 1 µM) of less than 0.000316 µM and a viability, T/C (second compound 0.01 µM, first compound 0.000316 µM) of 72.2%. The viability, T/C (second compound 0.01 µM, first compound 0.001 µM) was 70.7%, the viability, T/C [1] was 71.7% and the viability, T/C [2] was 77.2%. It also gave a viability, T/C [3] of 77.4%, a viability, T/C [4] of 66.1% and a viability, T/C (second compound 0.0316 µM, first compound 0.000316 µM) of 65.7%. It also gave a viability, T/C (second compound 0.0316 µM, first compound 0.001 µM) of 67.8%, a viability, T/C [7] of 55.7% and a viability, T/C [8] of 70.6%. It also gave a viability, T/C [9] of 62.3%, a viability, T/C [10] of 57.3% and a viability, T/C (second compound 0.1 µM, first compound 0.000316 µM) of 53.5%. For the same compound, the viability, T/C (second compound 0.1 µM, first compound 0.001 µM) was 60.9%, the viability, T/C [13] was 47.3% and the viability, T/C [14] was 55.5%. For the same compound, the viability, T/C [15] was 52.4%, the viability, T/C [16] was 64.5% and the viability, T/C (second compound 0.316 µM, first compound 0.000316 µM) was 45.6%. It also gave a viability, T/C (second compound 0.316 µM, first compound 0.001 µM) of 48.3%, a viability, T/C [19] of 42.1% and a viability, T/C [20] of 43.9%. For the same compound, the viability, T/C [21] was 43.7%, the viability, T/C [22] was 44.7% and the viability, T/C (second compound 1 µM, first compound 0.000316 µM) was 38.8%. For the same compound, the viability, T/C (second compound 1 µM, first compound 0.001 µM) was 41.9%, the viability, T/C [25] was 42.9% and the viability, T/C [26] was 40.2%. It also gave a viability, T/C [27] of 35.7% and a viability, T/C [28] of 46.9%.
